Results on eleven molecules are retold here after patent US10208089B2, “Modulation of complement activity” (priority 2014, dated 2019).

The structures appear in SMILES notation. pIC50: −log10 of the molar value. Starred links: 1 amine or outer side, 2 acyl side, 3 side chain; linkers in the order of their positions; H or OH if unused. Positions of bridges follow the written chain, without caps; N, C: chain ends. Non-standard residues stand in square brackets, D forms with d. Residues, ends and D or L forms follow the SMILES beside them. Trp(7-aza) = N[C@@H](Cc1c[nH]c2ncccc12)C(=O)O; mXylylene = c1cc(C[*:1])cc(C[*:2])c1; dPhg = N[C@@H](C(=O)O)c1ccccc1; Phg = N[C@H](C(=O)O)c1ccccc1; Tle = CC(C)(C)[C@H](N)C(=O)O; NMeS = CN[C@@H](CO)C(=O)O; Nva = CCC[C@H](N)C(=O)O

The experiment addresses C5 (Homo sapiens, UniProt P01031). The experiment can be described thus: Human hemolysis assay (RBC lysis assay using complete human sera). The class given is cell-based. Also on record: with complete human sera (Complement Technology, Tyler Tex.) and polypeptides; tissue Complement Technology, Tyler Tex; host or cells: complete human serum.
Setting [1] is: inhibition of lysis of antibody-sensitized sheep erythrocytes, complete human sera.
The mark [2] stands for this setting: 7-azatryptophan variant polypeptides of R3002, inhibition of red blood cell lysis.

Chain of C5 (P01031 19-1676): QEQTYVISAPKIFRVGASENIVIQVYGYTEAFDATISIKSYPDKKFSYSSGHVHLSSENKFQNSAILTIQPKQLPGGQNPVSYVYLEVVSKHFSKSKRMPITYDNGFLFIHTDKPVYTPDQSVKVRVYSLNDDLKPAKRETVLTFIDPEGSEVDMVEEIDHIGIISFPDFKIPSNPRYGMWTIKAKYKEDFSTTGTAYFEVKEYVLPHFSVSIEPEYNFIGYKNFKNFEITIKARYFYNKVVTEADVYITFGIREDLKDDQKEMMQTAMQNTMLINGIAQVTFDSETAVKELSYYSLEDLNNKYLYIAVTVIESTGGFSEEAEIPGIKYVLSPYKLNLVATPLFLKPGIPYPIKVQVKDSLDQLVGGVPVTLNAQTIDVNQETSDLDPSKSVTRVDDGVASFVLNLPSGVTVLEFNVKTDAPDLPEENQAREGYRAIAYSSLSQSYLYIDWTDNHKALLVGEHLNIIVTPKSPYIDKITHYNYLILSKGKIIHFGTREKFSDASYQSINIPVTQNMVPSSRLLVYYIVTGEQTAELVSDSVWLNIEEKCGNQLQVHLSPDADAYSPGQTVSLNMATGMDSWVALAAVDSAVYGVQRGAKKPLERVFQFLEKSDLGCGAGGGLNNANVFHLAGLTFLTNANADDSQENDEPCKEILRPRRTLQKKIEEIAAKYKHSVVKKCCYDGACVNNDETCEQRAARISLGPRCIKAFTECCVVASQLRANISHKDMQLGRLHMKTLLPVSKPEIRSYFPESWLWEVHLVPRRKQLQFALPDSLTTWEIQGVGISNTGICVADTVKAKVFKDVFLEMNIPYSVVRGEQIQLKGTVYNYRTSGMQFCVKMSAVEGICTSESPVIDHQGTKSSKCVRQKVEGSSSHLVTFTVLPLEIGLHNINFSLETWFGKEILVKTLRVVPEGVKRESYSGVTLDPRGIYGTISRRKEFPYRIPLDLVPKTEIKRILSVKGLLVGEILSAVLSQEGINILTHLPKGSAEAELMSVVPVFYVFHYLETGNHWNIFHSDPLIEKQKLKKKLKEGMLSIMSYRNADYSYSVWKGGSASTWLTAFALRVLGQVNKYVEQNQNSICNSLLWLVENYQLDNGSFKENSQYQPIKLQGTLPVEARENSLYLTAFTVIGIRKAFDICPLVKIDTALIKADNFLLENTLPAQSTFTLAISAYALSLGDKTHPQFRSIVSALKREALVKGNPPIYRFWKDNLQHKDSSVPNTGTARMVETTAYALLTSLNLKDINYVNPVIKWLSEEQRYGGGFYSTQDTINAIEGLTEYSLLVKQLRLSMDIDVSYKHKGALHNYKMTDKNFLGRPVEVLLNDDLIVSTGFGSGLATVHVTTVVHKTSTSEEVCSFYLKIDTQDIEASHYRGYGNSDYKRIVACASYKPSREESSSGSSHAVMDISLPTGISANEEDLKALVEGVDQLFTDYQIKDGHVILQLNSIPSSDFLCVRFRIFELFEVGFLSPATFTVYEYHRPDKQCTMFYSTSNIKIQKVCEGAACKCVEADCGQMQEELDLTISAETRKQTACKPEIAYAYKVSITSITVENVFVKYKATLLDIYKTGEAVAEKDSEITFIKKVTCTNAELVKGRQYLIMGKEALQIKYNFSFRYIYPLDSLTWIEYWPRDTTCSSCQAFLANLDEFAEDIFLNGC

Turning to `CCC[C@H](NC(=O)[C@@H](NC(=O)[C@@H]1CCCN1C(=O)[C@H](Cc1ccc(O)cc1)NC(=O)[C@H](CCC(=O)O)NC(=O)[C@H](Cc1c[nH]c2ccccc12)NC(=O)[C@H](Cc1ccc(O)cc1)NC(=O)[C@@H](NC(=O)[C@H](CC(N)=O)NC(=O)[C@H](CCC(=O)O)NC(=O)[C@H](Cc1ccc(O)cc1)NC(C)=O)C(C)(C)C)c1ccccc1)C(N)=O` [Compound R3041, Ac-Y-E-N-Tbg-Y-W-E-Y-P-Phg-Nvl-NH2], the pIC50 under setting [1] is 7.15.
For the molecule `CCC[C@H](NC(C)=O)C(=O)N[C@@H](CS)C(=O)N[C@@H](Cc1ccc(O)cc1)C(=O)N[C@@H](CC(N)=O)C(=O)N[C@@H](CC(N)=O)C(=O)N[C@H](C(=O)N[C@@H](CCC(=O)O)C(=O)N[C@@H](Cc1c[nH]c2ncccc12)C(=O)N[C@@H](CCC(=O)O)C(=O)N[C@@H](Cc1ccc(O)cc1)C(=O)N1CCC[C@H]1C(=O)N[C@H](C(=O)N[C@H](C(N)=O)C(C)(C)C)c1ccccc1)C(C)(C)C` [Compound R3004, Ac-Nvl-C-Y-N-N-Tbg-E-azaTrp-E-Y-P-Phg-Tbg-NH2] (Ac-[Nva]CYNN[Tle]E[Trp(7-aza)]EYP[Phg][Tle]-NH2), the pIC50 under setting [1] was 7.27.
For `CCC[C@H](NC(=O)[C@H](NC(=O)[C@@H]1CCCN1C(=O)[C@H](Cc1ccc(O)cc1)NC(=O)[C@H](CCC(=O)O)NC(=O)[C@H](Cc1c[nH]c2ncccc12)NC(=O)[C@H](Cc1ccc(O)cc1)NC(=O)[C@@H](NC(=O)[C@H](CC(=O)O)NC(=O)[C@@H]1CSCc2cccc(c2)CSC[C@H](NC(C)=O)C(=O)N[C@@H](C(C)C)C(=O)N[C@@H](CCC(=O)O)C(=O)N[C@@H](CCCNC(=N)N)C(=O)N[C@@H](C)C(=O)N1)C(C)(C)C)c1ccccc1)C(N)=O` [Compound R3156, [mXylyl(1,6)]Ac-C-V-E-R-A-C-D-Tbg-Y-azaTrp-E-Y-P-(D-Phg)-Nvl-NH2] (Ac-CVERACD[Tle]Y[Trp(7-aza)]EYP[dPhg][Nva]-NH2; linker 1-6 via mXylylene), the negative logarithm of the IC50 (pIC50) under setting [1] was < 5.00.
`CCC[C@H](NC(=O)[C@@H]1CSCc2cccc(c2)CSC[C@H](NC(=O)[C@H](CCC)NC(C)=O)C(=O)N[C@@H](c2ccccc2)C(=O)N[C@@H]([C@@H](C)O)C(=O)N[C@@H](C)C(=O)N[C@@H](CCC(=O)O)C(=O)N[C@@H](Cc2ccc(O)cc2)C(=O)N(C)[C@@H](CO)C(=O)N[C@@H](Cc2c[nH]cn2)C(=O)N1)C(N)=O` [Compound R3034, [mXylyl(2,10)]Ac-Nvl-C-Phg-T-A-E-Y-(N-Me)S-H-C-Nvl-NH2] (Ac-[Nva]C[Phg]TAEY[NMeS]HC[Nva]-NH2; linker 2-10 via mXylylene): the pIC50 (7-azatryptophan variant polypeptides of R3008, inhibition of red blood cell lysis) is < 4.30 and the pIC50 under setting [1] was < 4.30.
Turning to `CCC[C@H](NC(=O)[C@H](NC(=O)[C@@H]1CCCN1C(=O)[C@H](Cc1ccc(O)cc1)NC(=O)[C@H](CCC(=O)O)NC(=O)[C@H](Cc1c[nH]c2ncccc12)NC(=O)[C@H](Cc1ccc(O)cc1)NC(=O)[C@@H](NC(=O)[C@H](CC(=O)O)NC(=O)[C@@H]1CSCc2cccc(c2)CSC[C@H](NC(C)=O)C(=O)N[C@@H](C(C)C)C(=O)N[C@@H](C)C(=O)N[C@@H](CCCNC(=N)N)C(=O)N[C@@H](Cc2ccccc2)C(=O)N1)C(C)(C)C)c1ccccc1)C(N)=O` [Compound R3151, [mXylyl(1,6)]Ac-C-V-A-R-F-C-D-Tbg-Y-azaTrp-E-Y-P-(D-Phg)-Nvl-NH2] (Ac-CVARFCD[Tle]Y[Trp(7-aza)]EYP[dPhg][Nva]-NH2; linker 1-6 via mXylylene), under setting [1], the pIC50 was 6.78.
On the same count and under the same terms, the value for `CCC[C@H](NC(=O)[C@@H]1CSCc2cccc(c2)CSC[C@H](NC(=O)[C@H](CCC)NC(C)=O)C(=O)N[C@@H](c2ccccc2)C(=O)N[C@@H]([C@@H](C)O)C(=O)N[C@@H](Cc2c[nH]c3ncccc23)C(=O)N[C@@H](CC(=O)O)C(=O)N[C@@H](Cc2ccc(O)cc2)C(=O)N(C)[C@@H](CO)C(=O)N[C@@H](C)C(=O)N1)C(N)=O` [Compound R3097, [mXylyl(2,10)]Ac-Nvl-C-Phg-T-azaTrp-D-Y-(N-Me)S-A-C-Nvl-NH2] (Ac-[Nva]C[Phg]T[Trp(7-aza)]DY[NMeS]AC[Nva]-NH2; linker 2-10 via mXylylene) was < 4.00; that for `CCC[C@H](NC(C)=O)C(=O)N[C@H]1CSCc2cccc(c2)CSC[C@@H](C(=O)N(C)[C@@H](CO)C(=O)N[C@H](C(=O)N[C@@H](CCCCN)C(=O)N[C@@H](Cc2c[nH]c3ncccc23)C(=O)N[C@@H](CCC(=O)O)C(=O)N[C@@H](Cc2ccc(O)cc2)C(N)=O)C(C)(C)C)NC(=O)[C@H](Cc2ccc(O)cc2)NC(=O)[C@H](c2ccccc2)NC(=O)[C@H](CCC(=O)O)NC(=O)[C@H](CCCCN)NC1=O` [Compound R3007, [mXylyl(2,7)]Ac-Nvl-C-K-E-Pbg-Y-C-(N-Me)S-Tbg-K-azaTrp-E-Y-NH2] (Ac-[Nva]CKE[Phg]YC[NMeS][Tle]K[Trp(7-aza)]EY-NH2; linker 2-7 via mXylylene) was 6.50; that for `CCC[C@H](NC(=O)[C@@H](NC(=O)[C@@H]1CCCN1C(=O)[C@H](Cc1ccc(O)cc1)NC(=O)[C@H](CCC(=O)O)NC(=O)[C@H](Cc1cn(C)c2ccccc12)NC(=O)[C@H](Cc1ccc(O)cc1)NC(=O)[C@@H](NC(=O)[C@H](CC(N)=O)NC(=O)[C@H](CCC(=O)O)NC(=O)[C@H](Cc1ccc(O)cc1)NC(C)=O)C(C)(C)C)c1ccccc1)C(N)=O` [Compound R3110, Ac-Y-E-N-Tbg-Y-(1-Me)W-E-Y-P-Phg-Nvl-NH2] was 5.53.
Regarding `CCC[C@H](NC(=O)[C@@H](NC(=O)[C@@H]1CCCN1C(=O)[C@H](Cc1ccc(O)cc1)NC(=O)[C@H](CCC(=O)O)NC(=O)[C@@H](Cc1c[nH]c2ccccc12)NC(=O)[C@H](Cc1ccc(O)cc1)NC(=O)[C@@H](NC(=O)[C@H](CC(N)=O)NC(=O)[C@H](CCC(=O)O)NC(=O)[C@H](Cc1ccc(O)cc1)NC(C)=O)C(C)(C)C)c1ccccc1)C(N)=O` [Compound R3118, Ac-Y-E-N-Tbg-Y-(D-Trp)-E-Y-P-Phg-Nvl-NH2], the pIC50 was < 4.00 under setting [2] and < 4.00 under setting [1].
`CCC[C@H](NC(=O)[C@H](NC(=O)[C@@H]1CCCN1C(=O)[C@H](Cc1ccc(O)cc1)NC(=O)[C@H](CCC(=O)O)NC(=O)[C@H](Cc1c[nH]c2ccccc12)NC(=O)[C@H](Cc1ccc(O)cc1)NC(=O)[C@@H](NC(=O)[C@H](CC(=O)O)NC(=O)[C@@H]1CSCc2cccc(c2)CSC[C@H](NC(C)=O)C(=O)N[C@@H](C)C(=O)N[C@@H](CCC(=O)O)C(=O)N[C@@H](CCCNC(=N)N)C(=O)N[C@@H](Cc2ccccc2)C(=O)N1)C(C)(C)C)c1ccccc1)C(N)=O` [Compound R3149, [mXylyl(1,6)]Ac-C-A-E-R-F-C-D-Tbg-Y-W-E-Y-P-(D-Phg)-Nvl-NH2] (Ac-CAERFCD[Tle]YWEYP[dPhg][Nva]-NH2; linker 1-6 via mXylylene): under setting [1], the negative logarithm of the IC50 (pIC50) is 7.87.
For the molecule `CCC[C@H](NC(=O)[C@@H](NC(=O)[C@@H]1CCCN1C(=O)[C@H](Cc1ccc(O)cc1)NC(=O)[C@H](CCC(=O)O)NC(=O)[C@@H]1CSCc2cccc(c2)CSC[C@H](NC(=O)[C@H](CCC)NC(C)=O)C(=O)N[C@@H](Cc2ccc(O)cc2)C(=O)N[C@@H](CCC(=O)O)C(=O)N[C@@H](CC(N)=O)C(=O)N[C@@H](C(C)(C)C)C(=O)N[C@@H](Cc2ccc(O)cc2)C(=O)N1)c1ccccc1)C(N)=O` [Compound R3017, [mXylyl(2,8)]Ac-Nvl-C-Y-E-N-Tbg-Y-C-E-Y-P-Phg-Nvl-NH2] (Ac-[Nva]CYEN[Tle]YCEYP[Phg][Nva]-NH2; linker 2-8 via mXylylene), the pIC50 is, setting by setting: under setting [2], < 4.00; under setting [1], < 4.00.

One may read the pIC50 as −log10 of the IC50, conventionally taken in molar units.
